As usually defined, the melting point is the temperature, or range, at which the solid turns liquid.

With `CC(C)(C)NS(=O)(=O)c1cnc(-c2cn(-c3nc(-c4ccc(Cl)cc4)cc(C(F)(F)F)n3)cn2)s1`, the melting point stood at 261 °C.
Under `CC(C)c1cc(C(C)C)c(S(=O)(=O)n2cc3c4c(cccc42)C(=O)CC3)c(C(C)C)c1` stands 124 to 130 °C; under `CC(c1oc2ccccc2c(=O)c1-c1cccc(F)c1)n1nc(-c2cn[nH]c2)c2c(N)ncnc21` (centres undefined), 223 to 226 °C.
Consider `CCCC1CCC(c2cc3c4c(c(F)c(F)c3o2)OCCC4)CC1` (centres undefined), for which the melting point is 89 °C.
To `Cc1ccnc(C(=O)c2sc(Cl)nc2C)c1` belongs 115 to 116 °C; to `Nc1cc(C(=O)O)cc(S(N)(=O)=O)c1Sc1ccccc1`, 285 °C; to `CCn1ncc2nc(C(=O)OCC#N)c(C)nc21`, 83 to 84 °C.
Regarding `CCCCCCCCC1SC(=S)SC1CCCCCCCCO` (centres undefined), the melting point was in the range of 40 to 47 °C.
`CCC(Cn1nccn1)n1nnc2cc3c(=O)n(C(C)Cn4ncnn4)nnc3cc2c1=O` (centres undefined) displayed a melting point of 162 to 163 °C.
Molecule `Fc1cc2c(c(-c3c(Cl)cccc3Cl)c1)OC(CNCC1CC1)C2` (centres undefined) yielded a melting point of 130 to 133 °C.
In the case of `CC1(C)CC(=NNC(=N)NN=C2CC(C)(C)NC(C)(C)C2)CC(C)(C)N1`, the melting point lay within 163 to 167 °C.
Under `O=C(Nc1cccc2c(NN3CCOC3=O)ccnc12)c1c(Cl)cccc1Cl` stands greater than 250 °C; under `Cn1c(CC(=O)O)ccc1C(=O)c1cccc(Cl)c1`, 165 °C.
The molecule `C#CCOc1cccc(CCCCCCCCCCCCCCC)c1` showed a melting point of 26 to 27 °C.
The molecule `CC(C)(C)Nc1c(NCc2ccc(C(F)(F)F)cc2)c(=O)c1=O` had a melting point of 306 to 308 °C.
To `CCOC(=O)C(CCCCCc1ccc(Cl)cc1)C(N)=O` (centres undefined) belongs 110 to 111 °C; to `CCOC(=O)c1nccn1C1Sc2ccccc2C1=O` (centres undefined), 174 °C; to `COC(=O)C=Cc1cn(Cc2ccc(C(=O)OC(C)(C)C)cc2OC)c2cc(C(=O)NCC3CCCC3)ccc12`, 163 to 164 °C.
`COCC=C(NC(C)=O)C(=O)OC` returned a melting point of 61 to 63 °C.
Under `CCc1c(N2CCC(C(N)c3ccccn3)C2)c(F)c(N)c2c(=O)c(C(=O)O)cn(C3CC3F)c12` (centres undefined) stands 127 to 129 °C.
`CCCn1c(=O)c2[nH]c(-c3cc(C)n(CC(=O)Nc4ccc(F)cc4)n3)nc2n(CCC)c1=O`: the melting point lay in the range of 205 to 207 °C.
For `O=C(O)c1c(Cc2ccccc2)nc2c(C(F)(F)F)cccc2c1O`, the melting point turned out to be 252 °C.
In turn, `O=S1(=O)N=Cc2ccccc2O1` gave a melting point of 44 to 47 °C.
Molecule `CC(C)(C)c1cc(-c2nn(CC(N)=O)c3ncccc23)cc(C(C)(C)C)c1O` displayed a melting point of 162 to 164 °C.
`CCn1ncnc1COc1nn2c(-c3ccccc3F)nncc2c1-c1ccncc1` returned a melting point of 214 to 217 °C.
To `CN1CCN(c2ccc(S(=O)(=O)Oc3ccc(Cl)cc3)cc2)C1=O` belongs 165 to 168 °C; to `Cn1cccc1C(=O)c1[nH]c2ccc(Cl)cc2c1CC(=O)O`, 203 to 205 °C.
In the case of `c1ccc2c(c1)COC2=N[C@@H]1CCc2ccccc21`, the melting point lay within 79 to 80 °C.
On to `CC1(C)Oc2cc([N+](=O)[O-])sc2C(N2CCCC2=O)C1O` (centres undefined), for which the melting point lay within 214 to 217 °C.
In turn, `FC(F)(F)c1cc(Nc2ccc3[nH]ccc3c2)nc(-c2cccnc2)n1` gave a melting point of 142 to 143 °C.
Under `N#CN1CCC2(CC1)C(=O)c1cc(Cl)ccc1Sc1ccccc12` stands 142 °C; under `CSc1nc(N)nc(-c2ccccc2)c1-c1ccc(=O)n(C)n1`, 233 to 235 °C; under `Cc1ccc(Oc2nsnc(Cl)c2=O)cn1`, 155 to 156 °C.
The molecule `O=C(NCc1ccc(Cl)cc1)c1cnc2c(F)c(Oc3ccc(CO)cc3)c(F)cc2c1O` returned a melting point of 235 to 240 °C.
In the case of `CC(C)COC(=O)COC(=O)CON1CC(NC(=O)OCc2ccccc2)C1=O` (centres undefined), the melting point lay in the range of 90 to 92 °C.
`Nc1ccccc1Oc1c(C(=O)O)[nH]c2ccccc12` registered a melting point of 217 to 218 °C.
With `CCOC(=O)c1cn(C2CC2)c2nc3cc(Cl)c(F)cc3cc2c1=O`, the melting point came to 256 °C.
Under `CCCCCc1nc(C#N)c(C#N)nc1O` stands 61 to 64 °C.
Under `COc1ccccc1N1CCN(C(=O)Nc2cc3ccccc3nc2OC)CC1` stands 159 to 161 °C; under `O=C(O)c1cccc(-c2ccnc3c(C(=O)c4cccs4)cnn23)c1`, 174 to 177 °C.
In turn, `O=C1CCOC(N2CCN=C(c3ccccc3Cl)c3cc(Cl)ccc32)=N1` yielded a melting point of 124 to 135 °C.
To `C=CCC1=C(O)C(C)=CC(C)(OC(C)=O)C1C` (centres undefined) belongs 117 to 118 °C; to `CCCc1c(C(=O)NCc2ccc(-c3ccc(O)c(Br)c3)cc2)cnn1-c1ccccc1`, 184 to 186 °C; to `O=S(=O)(Cc1nc2ccc(Cl)cc2[nH]1)c1ccccn1`, 183 to 186 °C.
Under `COc1cc(-c2cnc3[nH]cc(I)c3n2)cc(OC)c1OC` stands 230 to 232 °C; under `O=C(c1ccc(-c2ccncc2)nc1)N1CCN(S(=O)(=O)c2ccc3cc(Br)ccc3c2)CC1`, 194 °C; under `CSc1ccc(C=CC(=O)c2ccc(O)cc2)cc1`, 171 °C.
The molecule `CON1CCC2(CC1)NC(=O)C(c1c(C)cc(C)cc1C)=C2OCc1ccccc1` came in with a melting point of 184 to 186 °C.
For `COCCNc1c([N+](=O)[O-])cnn1-c1c(Cl)cc(C(F)(F)F)cc1Cl`, the melting point is 85 to 90 °C.
The molecule `CCNC(=O)c1nn(-c2ccc(Cl)cc2)c(=O)c2c(N)scc12` gave a melting point of 203 to 205 °C.
For the molecule `OCCON=Cc1ccncc1`, the melting point fell in the range of 78 to 80 °C.
Regarding `COc1cc2c(cc1OC)CN(CCCCOc1ccc(NC(=O)c3cnc4ccccc4n3)cc1)CC2`, the melting point came out at 141 °C.
The molecule `COC(=O)c1ccc(Cl)cc1SCCC(=O)O` came in with a melting point of 133 to 136 °C.
Regarding `COc1ccc(-c2[nH]nc3c2C(=O)c2c(NC(=O)CCl)cccc2-3)cc1`, the melting point turned out to be 274 °C.
To `CC(C)CC1(C(CCN2C(=O)c3ccc4c(ccc5ccccc54)c3C2=O)C(=O)NO)CCN(CCc2ccccc2)C1=O` (centres undefined) belongs 203 to 205 °C; to `CCCCNc1nc(-c2ccccc2)co1`, 52 to 53 °C.
Molecule `Cc1ncc2cc(C(c3ccccc3)n3ccnc3)ccc2n1` (centres undefined) yielded a melting point of 130 °C.
Consider `COc1cc(Nc2nccc(-c3cccc(N)c3)n2)cc(OC)c1OC`, for which the melting point lay within 166 to 167 °C.
`C1=C(c2c[nH]c3ccccc23)CCN(CC2COc3ccc4ncncc4c3O2)C1` (centres undefined) registered a melting point of 204 to 207 °C.
To `COC(=O)c1cc(OC)cc2cc(-c3ccc(OC)c(F)c3)oc12` belongs 121 to 123 °C.
Regarding `C=CCc1cc(C2=NNC(=O)CC2)ccc1O`, the melting point lay in the range of 240 to 244 °C.
Under `C[C@@H](NC(=O)c1c(N)cc(Cl)cc1Cl)c1ccccc1` stands 115 to 119 °C; under `COc1ccc(CN(C)CC=Cc2ccc(NC(=O)c3cccc4c(=O)c5cccc(OC)c5[nH]c34)cc2)cc1OC`, 200 °C.
`COc1ccc2cc(CCc3ccc(OCC(O)CNC(C)C)c(OC)c3)n(C)c(=O)c2c1` (centres undefined): the melting point was in the range of 162 to 164 °C.
To `Cc1ccc(C(=C/C=C/C(=O)O)c2ccc(C)cc2)cc1` belongs 224 to 226 °C; to `Cc1cc(O)cc(Br)c1C`, 98 to 99 °C.
To `COc1cc2cnnc(N3CCC(CCN(C)C(=O)NC4CCCCC4)CC3)c2cc1OC` belongs 204 to 206 °C; to `COc1cccc2c1CC=CC2`, 44.3 to 45 °C; to `CCCCCc1c(C(C)=O)nc(C(C)C)c(CO)c1-c1ccc(F)cc1`, 69 to 70 °C.
Consider `CCCn1c(-c2ccccc2)nc2cc(C(=O)O)ccc21`, for which the melting point worked out at 223 °C.
The molecule `CCOC(=O)c1cc2cc(OCCCS(C)(=O)=O)cc(N(C)S(=O)(=O)c3ccccn3)c2[nH]1` registered a melting point of 176 to 177 °C.
For the molecule `C=CCOc1cccc(C(=O)O)c1C(=O)O`, the melting point was 166 to 167 °C.
With `CC(C)(C)c1ccc(/C=N/OCCCOc2ccc(C(=O)O)c(NC(=O)c3ccc(C(C)(C)C)cc3)c2)cc1`, the melting point lay within 192 to 194 °C.
Under `Cc1nc(Br)n(COCc2ccccc2)c1Sc1ccccc1` stands 55 °C; under `O=[N+]([O-])c1ccc(Cl)cc1Cc1ccccn1`, 69 °C.
To `CC(=O)Nc1nc2c(Oc3cc(-c4ccc(C(F)(F)F)cc4)nc(N4CCN(C(=O)OC(C)(C)C)CC4)n3)cccc2s1` belongs 211 °C; to `N#CCCC(C=O)(c1ccccc1)c1ccccc1`, 80 to 82 °C.
In turn, `NS(=O)(=O)c1ccc(-c2cn(-c3nc(-c4ccc(C(F)(F)F)cc4)cc(C(F)(F)F)n3)cn2)cc1` yielded a melting point of 292 °C.
`CCSCCOC(=O)C(Br)=Cc1cc(-n2c(=O)cc(C(F)(F)F)n(C)c2=O)ccc1Cl`: the melting point fell in the range of 118 to 120 °C.
To `CCOC(=O)c1cc(Cl)nc(Cl)n1` belongs 31.6 °C; to `O=C(N[C@H](Cc1ccc(C(F)(F)F)cc1)[C@@H](O)c1ccc(Oc2ccccc2)cc1)c1cccc2c1C=CCCC2` (racemic), 191 to 192 °C.
The molecule `COc1ccc(OC)c2c1C[C@](O)(C(C)=O)CC21SCCS1` registered a melting point of 175 to 178 °C.
`CC(C)OC12NC(=O)C(C)(C(C)C)N1C(=O)c1cccnc12` (centres undefined) had a melting point of 158 to 160 °C.
The molecule `O=C(OC1CNC(=N[N+](=O)[O-])NC1)C1(C2CCCCC2)CCCCC1` (centres undefined) showed a melting point of 196 to 197 °C.
For `Cc1c[nH]c(-c2ccc(OCC(O)CNC(C)(C)C)cc2)n1` (centres undefined), the melting point lay in the range of 202 to 203 °C.
In turn, `CCOc1ccc(CNC(=O)C(=O)NCCc2ccccn2)c(OC)c1` came in with a melting point of 117 to 118 °C.
`c1ccc2cc(-c3cc4nccnc4[nH]3)ncc2c1` gave a melting point of 281 to 285 °C.
`Oc1ccc(Oc2ccc(Oc3ccc(O)cc3)cc2)cc1`: the melting point fell in the range of 187 to 189 °C.
On to `CC(=O)OC1CSC(Oc2cccc(-c3cnoc3C)c2)C(OC(C)=O)C1OC(C)=O` (centres undefined), for which the melting point amounted to 60 °C.
